The text below walks through data of US9757375B2, “Compounds that inhibit human DNA ligases and methods of treating cancer” (University of Maryland, Baltimore, priority 2007, dated 2017).

Like-named read-outs stand apart in the source and are kept apart here. Marks after values point to notes of the source that are not given here.

The test system of one data set is HCT116 and MCF10A cells. The experiment in a line: Cell proliferation screen, result stated for one or both cell lines. The format is cell-based, human. The settings on record: in vivo cell culture screen. The procedure: The ability of the compounds identified by CADD to inhibit proliferation of normal mammary epithelial MCF10A cells and colon carcinoma HCT116 cells was determined using a Biomek FX Laboratory Automation Workstation (Beckman Coulter, Inc., Fullerton, Calif.). On day 0, 20 μl of complete medium containing the appropriate number of cells (150-300) was plated per well of a 384-well tissue plate (Fisher Scientific, Hampton, N.H.) and incubated overnight at 37° C. with 5% CO2 and 90% humidity. Next day, day 1, compounds were prepared by serial dilution with complete medium to yield the concentration 100 μM, and 20 μl was added to each well containing 20 μl of medium and cells yielding the final concentration 50 μM in 40 μl volume. Plates were incubated for additional 3 days (days-2-5) until control cells (0.5% DMSO) reached ˜70-80% confluency. On day 6, 40 μl of lysis/detection solution containing 1.2% Igepal CA-630 (Sigma) and a 1:1000 dilution of SYBR Green I nucleic acid stain (Molecular Probes, Eugene, Oreg.) was added to each well. Following an overnight incubation at 37° C., total fluorescence was measured using a Fluorostar Galaxy plate reader with a 485 nm excitation filter and 520 nm emission filter set (BMG Labtech, Inc., Durham, N.C.). Data was exported to a custom program that determined growth inhibition by dividing each individual fluorescence value by the average of fluorescence values obtained with cells treated with DMSO alone.
The 192 human DNA ligase inhibitors were screened in parallel for effects on proliferation and the ability to potentiate the effects of several DNA damaging agents using two cell human lines, a colon cancer line HCT116 and a normal breast epithelial cell line MCF10A using a Biomek FX Laboratory Automation Workstation as described (23). The DNA damaging agents used, methyl methanesulfonate (MMS), camptothecin, cis-platinum, 3 aminobenzamide and ionizing radiation, are representatives of classes of agents used to treat cancer. Briefly, HCT116 and MCF10A cells were plated in 96 well plates such that the cultures were about 80% confluent after 5 days incubation. Compounds were added to the cultures at either 15 μM or 50 μM 1 day after plating. After incubation for 3 days, cell lysed in a solution containing 1.2% Igepal CA-630 and SYBR green that stains DNA (1:1000, Molecular Probes, Eugene, Oreg.). Subsequently, fluorescence was measured per well. The studies with DNA damaging agents were performed as follows. […] For ionizing radiation, cells were pre-incubated with the compounds at 50 μM for 1 hour prior to exposure to 2 gray of ionizing radiation. Cultures were incubated for 3 days and then treated as above.

For data set [1], the system named is MCF7, HCT116, HeLa, and MCF10A cells. In words: Survival assay on cell panel (FIG. 9). The settings on record: for EC50: Homo sapiens, cell line not stated. The format is cell-based, human. In short, it runs like this: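 Clonogenic survival: cells grown with or without ligase inhibitor (3 μmol/L L67 or 20 μmol/L L189 in combination arms), plus MMS (0-50 μM) or Cs-137 irradiation (0-2.5 Gy) where indicated. Colonies stained with crystal violet and counted after two weeks.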

For another data set, the system named is MCF10A cells. In words: Cell proliferation screen (SYBR Green, Biomek FX). Conditions: for Growth_Inh % (50 μM) MCF10A: percentage of values obtained with DMSO alone; for inhibition at 50 µM: Homo sapiens, MCF-10A. Format: cell-based, human. In short, it runs like this:
(§1)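 HCT116 and MCF10A cells, 150–300 per well, exposed 1 day after plating to compounds at 50 μM final (15 μM or 50 μM in the parallel screen) for 3 days at 37 °C, 5% CO2. Cells lysed overnight with 1.2% Igepal CA-630 plus SYBR Green I (1:1000), fluorescence read at 485/520 nm. Growth inhibition expressed relative to 0.5% DMSO controls.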

Data set [2] relates to HCT116 cells. The experiment in a line: Cell proliferation screen (SYBR Green, Biomek FX). The settings on record: for inhibition at 50 µM: Homo sapiens, HCT-116, read-out: % growth inhibition HCT116 50 uM. Format: cell-based, human. In short, it runs like this:
as §1

In another data set the target is T1, T4 DNA ligase (Enterobacteria phage T4, UniProt P00970).
T1 construct: purchased NEB
T1 sequence (P00970 1-487): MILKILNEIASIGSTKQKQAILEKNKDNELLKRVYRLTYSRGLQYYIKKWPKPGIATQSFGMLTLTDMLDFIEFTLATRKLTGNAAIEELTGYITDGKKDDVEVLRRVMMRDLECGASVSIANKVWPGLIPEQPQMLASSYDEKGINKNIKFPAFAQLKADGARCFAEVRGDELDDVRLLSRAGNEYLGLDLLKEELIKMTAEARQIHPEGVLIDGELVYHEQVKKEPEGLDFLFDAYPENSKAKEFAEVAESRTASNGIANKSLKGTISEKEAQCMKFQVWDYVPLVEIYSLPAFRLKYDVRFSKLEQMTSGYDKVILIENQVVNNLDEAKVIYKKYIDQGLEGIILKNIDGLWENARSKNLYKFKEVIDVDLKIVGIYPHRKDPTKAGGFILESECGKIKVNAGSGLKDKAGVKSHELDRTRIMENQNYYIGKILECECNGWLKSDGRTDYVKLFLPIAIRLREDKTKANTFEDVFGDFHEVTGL
The experiment in a line: High-throughput fluorescence-based DNA joining assay, non-specific inhibitor control. The format is biochemical, bacteriophage T4. An outline of the steps: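 This counter-screen used a FRET-based DNA joining assay. Duplicate reactions held 10 pmol nicked DNA substrate and 10 units T4 DNA ligase, with or without 100 μmol/L compound. T4 ligase lacks the DNA-binding domain targeted in silico, so compounds inhibiting it were flagged as non-specific, likely DNA-binding.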

The subject of data set [3] is HCT116 cells. The experiment in a line: Screen for potentiation of DNA damaging agents (MMS, camptothecin, cis-platinum, 3 aminobenzamide, ionizing radiation). The format is cell-based, human. Conditions: compound alone vs combination with MMS (100 μM); 1 = no sensitization.
In a further data set the target is hLigIV/XRCC4 (Homo sapiens, UniProt P49917). In words: Radioactive gel-based DNA ligation assay. Format: biochemical. Further details: concentration or dose not given beside the values.
hLigIV/XRCC4, sequence (P49917 whole entry): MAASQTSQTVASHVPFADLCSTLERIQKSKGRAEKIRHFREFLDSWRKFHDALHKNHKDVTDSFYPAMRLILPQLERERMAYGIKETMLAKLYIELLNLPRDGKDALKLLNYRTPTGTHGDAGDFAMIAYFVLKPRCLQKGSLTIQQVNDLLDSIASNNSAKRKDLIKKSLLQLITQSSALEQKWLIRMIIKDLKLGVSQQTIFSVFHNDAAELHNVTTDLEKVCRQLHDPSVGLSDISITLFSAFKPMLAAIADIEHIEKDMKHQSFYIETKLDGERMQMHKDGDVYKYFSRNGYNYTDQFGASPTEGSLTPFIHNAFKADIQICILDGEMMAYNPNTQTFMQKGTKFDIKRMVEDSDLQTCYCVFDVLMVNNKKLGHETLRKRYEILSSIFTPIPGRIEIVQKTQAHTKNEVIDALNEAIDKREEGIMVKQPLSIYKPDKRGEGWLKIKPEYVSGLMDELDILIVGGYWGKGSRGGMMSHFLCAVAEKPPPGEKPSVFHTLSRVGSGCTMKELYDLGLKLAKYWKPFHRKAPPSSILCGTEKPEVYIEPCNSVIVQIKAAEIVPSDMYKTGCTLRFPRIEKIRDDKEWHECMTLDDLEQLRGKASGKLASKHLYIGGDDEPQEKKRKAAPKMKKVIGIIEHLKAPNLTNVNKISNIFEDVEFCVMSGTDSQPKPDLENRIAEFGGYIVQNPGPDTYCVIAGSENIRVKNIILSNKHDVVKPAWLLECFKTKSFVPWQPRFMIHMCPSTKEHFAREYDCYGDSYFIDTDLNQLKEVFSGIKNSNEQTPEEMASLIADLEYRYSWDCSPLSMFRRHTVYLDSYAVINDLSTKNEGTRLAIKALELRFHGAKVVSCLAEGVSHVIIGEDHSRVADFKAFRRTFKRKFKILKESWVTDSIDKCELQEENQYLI
hLigIV/XRCC4, sequence (Q13426 whole entry partner): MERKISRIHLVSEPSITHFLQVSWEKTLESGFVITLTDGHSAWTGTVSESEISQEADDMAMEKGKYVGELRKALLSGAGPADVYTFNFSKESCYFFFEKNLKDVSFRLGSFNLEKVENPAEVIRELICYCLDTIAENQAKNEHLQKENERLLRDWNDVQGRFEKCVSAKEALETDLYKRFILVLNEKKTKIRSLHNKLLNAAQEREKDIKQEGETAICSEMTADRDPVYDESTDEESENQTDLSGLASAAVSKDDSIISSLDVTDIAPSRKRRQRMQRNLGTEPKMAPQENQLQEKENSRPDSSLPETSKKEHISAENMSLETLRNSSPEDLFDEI
The mark [4] stands for this setting: 50 μM, read-out: In vivo growth inhb MCF10A % Inhb at 50.
The mark [5] stands for this setting: read-out: % growth inhibition MCF10A 50 uM.
Setting [6] is: 100 μM, read-out: In vitro % inhib T4 100.
Setting [7] is: read-out: % activity Inhibition LigT4 100 uM.

As for `O=C(O)CSc1cc(Cl)c2nonc2c1[N+](=O)[O-]` [Compound 64], the “inhibition of cell proliferation, in words” value in the data set with HCT116 and MCF10A cells is on record as “inhibited cell proliferation”. Further, the EC50 in data set [1] was about 50 µM. In addition, the “Growth_Inh % (50 μM) MCF10A” value in the data set on MCF10A cells (50 μM) came out at 40%. The inhibition at 50 µM with MCF10A cells (setting [4]) came out at 40%; in the data set on MCF10A cells (setting [5]), 40%; with HCT116 cells [2] it was 70%. Further, the inhibition at 100 µM stood at 18 ± 8% on T4 DNA ligase (setting [6]) and 18.4 ± 8.4% on T4 DNA ligase (setting [7]). Moreover, the “MMS: Ratios of IC50 HCT116” value with HCT116 cells [3] is given as 2**. Besides, on hLigIV/XRCC4, the “% activity Inhibition hLigIV gel” value was determined as 66%.
`Nc1nc(S)nc(O)c1/N=C/c1ccccc1` [Compound 189]: the “inhibition of cell proliferation, in words” value with HCT116 and MCF10A cells is “inhibited cell proliferation”. Besides, the EC50 in data set [1] was about 50 µM. The “potentiation of the cytotoxic effects of DNA-damaging agents” value in data set [1] (L67 3 μmol/L with MMS (MCF7 vs MCF10A), L189 20 μmol/L with ionizing radiation (HCT116 vs MCF10A), FIG. 9B) was “potentiate the cytotoxic effects of DNA-damaging agents”. Moreover, in data set [1] (MCF7, HCT116, HeLa, MCF10A, FIG. 9A), the “cytotoxicity (cell survival)” value was “cytotoxic”. In addition, in the data set with MCF10A cells (50 μM), the “Growth_Inh % (50 μM) MCF10A” value is listed as 70%. Also, the inhibition at 50 µM in the data set on MCF10A cells (setting [4]), with MCF10A cells (setting [5]) and in the data set with HCT116 cells [2] was 70% in each case. Moreover, in the data set on HCT116 cells [2] (50 μM), the “In vitro growth inhb HCT116 % Inhb at 50 (μM)” value is 70%. Also, the “Growth_Inh % (50 μM) HCT116” value with HCT116 cells [2] (50 μM, percentage of values obtained with DMSO alone) is 70%. The inhibition at 100 µM at T4 DNA ligase (setting [6]) was found to be 3 ± 2%; at T4 DNA ligase (setting [7]), 3.2 ± 1.9%. Further, the “inhibition of T4 DNA ligase, in words” value against T4 DNA ligase (in vitro screen, 100 μmol/L) is on record as “inhibit hLigI but not T4 DNA ligase”. The “% activity Inhibition hLigIV gel” value on hLigIV/XRCC4 was found to be 80%.

As usually defined, the EC50 is the concentration needed to bring the measured effect to its halfway point.
